{"source": "patent US9573970B2", "about": "“4-{4-[(1E)-4-(2,9-diazaspiro[5.5]undec-2-yl)but-1-en-1-yl]-2-methylbenzyl}-5-(propan-2-yl)-1H-pyrazol-3-yl beta-D glucopyranoside acetate” (Eli Lilly and Company, priority 2013, dated 2017)", "key": {"human SGLT1": {"target": "T1, human SGLT1 (Homo sapiens, UniProt P13866)", "T1 sequence (P13866 1-664)": "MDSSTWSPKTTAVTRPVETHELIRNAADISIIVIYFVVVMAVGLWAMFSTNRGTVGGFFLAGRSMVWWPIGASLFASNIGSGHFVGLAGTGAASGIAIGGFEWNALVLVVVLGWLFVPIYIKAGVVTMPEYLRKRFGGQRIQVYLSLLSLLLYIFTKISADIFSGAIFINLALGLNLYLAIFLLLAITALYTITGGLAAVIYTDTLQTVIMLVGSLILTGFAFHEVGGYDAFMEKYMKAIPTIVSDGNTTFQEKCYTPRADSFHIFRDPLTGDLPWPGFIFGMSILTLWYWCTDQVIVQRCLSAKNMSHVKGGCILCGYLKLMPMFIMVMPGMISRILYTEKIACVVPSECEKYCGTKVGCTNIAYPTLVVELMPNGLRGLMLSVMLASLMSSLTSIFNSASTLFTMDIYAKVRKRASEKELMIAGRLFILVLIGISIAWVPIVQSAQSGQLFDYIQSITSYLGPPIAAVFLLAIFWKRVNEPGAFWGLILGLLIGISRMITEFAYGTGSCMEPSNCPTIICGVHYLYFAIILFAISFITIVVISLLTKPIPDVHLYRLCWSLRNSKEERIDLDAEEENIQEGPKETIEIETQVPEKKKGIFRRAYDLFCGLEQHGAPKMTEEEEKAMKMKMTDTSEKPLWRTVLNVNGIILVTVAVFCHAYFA", "experiment": "Sodium-dependent 14C-AMG uptake in CHO-K1 cells expressing human SGLT1", "format": "cell-based", "description": "The cDNA encoding human SGLT1 (slc5a1, NM_000343), human SGLT2 (slc5a2, NM_003041) and mouse SGLT1 (slc5a1, NM_019810.4) are purchased from Openbiosystems, Invitrogen and Openbiosystems, respectively. The cDNA is cloned into pcDNA3.1+ for mammalian expression and is stably transfected into Chinese hamster ovary (CHO)-K1 cells using standard mammalian transfection procedures. An SGLT-expressing sub-clone of each over-expressing cell line is selected based on resistance to neomycin (Geneticin, Invitrogen) and activity in the ^14C-α-methyl-D-glucopyranoside (^14C-AMG) uptake assay (see below). Stable SGLT-expressing cells are maintained using standard cell culture techniques.\nThe SGLT activity is measured as sodium-dependent ^14C-AMG uptake in the above cell lines described as follows. One hundred μL of culture medium containing 30,000 cells are seeded to each well of a 96-well BioCoat poly-D-lysine plate (Becton Dickson) and cultured at 37° C. overnight. The culture medium is aspirated and cells are washed twice with 200 μL of Reaction Buffer (140 mM NaCl, 2 mM KCl, 1 mM CaCl2, MgCl2, and 14 mM N-2-hydroethylpiperrazine-N′-2-ethanesulfonic acid (Hepes), pH 7.5). The excess buffer is tapped out onto paper towels. Thirty-five μL of Reaction Buffer are added to each well. […] After mixing, the scintillation signal in the plate is counted in a MicroBeta (PerkinElmer). […]"}, "[1]": {"system": "male rats with STZ-induced diabetes", "experiment": "Mixed meal tolerance test (MTT) in male rats with streptozotocin induced diabetes", "format": "in vivo, rat", "details": "for Glucose value, 0 min.: 30 min after compound, before meal; for Glucose value, 0 min. / Baseline Adjusted AUC (glucose) / Glucose value, 20 min. / Glucose value, 40 min. / Glucose value, 60 min. / Glucose value, 120 min.: mean ± SE; for Baseline Adjusted AUC (glucose): MTT", "method": "The test compound is formulated by adding a vehicle of 1% hydroxyethylcellulose (HEC), 0.25% Tween® 80 w/antifoam 0.05% to preweighed test compound to make a 2.5 mg/ml solution. The mixture is probe sonicated for approximately 30 seconds. The resulting solution is used as a stock solution, from which the lower concentration dose solutions are prepared by dilution with the vehicle. STZ, 45 mg/kg, is formulated by dissolving in 0.1M Citrate buffer in 3 ml aliquots and stored in the dark on ice, when not being administered. A high fat content mixed meal (Bio-Serv® Rodent Diet F3282 High Fat) comprising Fat Calories (60%), Carbohydrate Calories (26%) and Protein Calories (15%) is utilized. Single housed Sprague Dawley rats are allowed to acclimate for a period of 3 to 7 days.\nIn an effort to ensure that the animals have not recently fed, STZ is administered in the afternoon, approximately six hours into the light cycle (lights on 6 am, lights off 6 pm). The animals are anesthetized with isoflurane and STZ is delivered via tail vein injection. Once animals regain consciousness, they are returned to housing and allowed to recover for 7 days.\nOn the two days immediately prior to the meal tolerance test (MTT) all rats are given a small amount (2-4 g) of the F3282 diet, so they became acclimated to it prior to receiving it during the experiment. On the evening before the experiment, the rats are moved into clean cages and their food is removed. The following morning animals are weighed and a blood sample is taken by tail snip for glucose measurement (Abbott AlphaTRAK™ glucometers: code 29) Animals are grouped n=6 based on fasted body weight and glucose. Thirty minutes after the test compound is orally administered, two glucose measurements are collected. Then a five gram pellet of Bio-Serv® diet 3282 is given. After 20 minutes remaining food is taken away and weighed. Blood samples are taken at 20, 40, 60 and 120 minutes for glucose measurement."}, "[2]": {"details": "in words, Example 1 free base 10 and 30 mg/kg, Acarbose 60 mg/kg"}}}
{"molecule": "Cc1cc(/C=C/CCN2CCCC3(CCNCC3)C2)ccc1Cc1c(O[C@@H]2O[C@H](CO)[C@@H](O)[C@H](O)[C@H]2O)n[nH]c1C(C)C", "note": "[Example 1 (free base), 4-{4-[(1E)-4-(2,9-diazaspiro[5.5]undec-2-yl)but-1-en-1-yl]-2-methylbenzyl}-5-(propan-2-yl)-1H-pyrazol-3-yl beta-D-glucopyranoside]", "values": [{"measurement": "IC50", "setting": "human SGLT1; 14C-AMG uptake, CHO-K1 cells, n = 10", "value": "0.026 ± 0.02", "unit": "µM"}, {"measurement": "Potency at SGLT1 relative to human SGLT2", "setting": "human SGLT1; in vitro, from Table 2", "value": "more potent at human and mouse SGLT1 than at human SGLT2"}, {"measurement": "Glucose value, 0 min.", "setting": "[1]; 10 mg/kg oral", "value": "139 ± 16.1", "unit": "mg/dL"}, {"measurement": "Baseline Adjusted AUC (glucose)", "setting": "[1]; 10 mg/kg oral", "value": "22432 ± 2234"}, {"measurement": "Glucose value, 20 min.", "setting": "[1]; 10 mg/kg oral", "value": "221.2 ± 26.3", "unit": "mg/dL"}, {"measurement": "Glucose value, 40 min.", "setting": "[1]; 10 mg/kg oral", "value": "268.7 ± 29", "unit": "mg/dL"}, {"measurement": "Glucose value, 60 min.", "setting": "[1]; 10 mg/kg oral", "value": "330 ± 36.7", "unit": "mg/dL"}, {"measurement": "Glucose value, 120 min.", "setting": "[1]; 10 mg/kg oral", "value": "490.8 ± 39.2", "unit": "mg/dL"}, {"measurement": "Glucose value, 0 min.", "setting": "[1]; 30 mg/kg oral", "value": "137.4 ± 26.9", "unit": "mg/dL"}, {"measurement": "Baseline Adjusted AUC (glucose)", "setting": "[1]; 30 mg/kg oral", "value": "14649 ± 3673"}, {"measurement": "Glucose value, 20 min.", "setting": "[1]; 30 mg/kg oral", "value": "195.4 ± 44.8", "unit": "mg/dL"}, {"measurement": "Glucose value, 40 min.", "setting": "[1]; 30 mg/kg oral", "value": "232 ± 52.2", "unit": "mg/dL"}, {"measurement": "Glucose value, 60 min.", "setting": "[1]; 30 mg/kg oral", "value": "263.9 ± 62.2", "unit": "mg/dL"}, {"measurement": "Glucose value, 120 min.", "setting": "[1]; 30 mg/kg oral", "value": "355.3 ± 73.2", "unit": "mg/dL"}, {"measurement": "Glucose baseline adjusted AUCs in the MTT", "setting": "[1]; [2]", "value": "dose dependent decrease in glucose baseline adjusted AUCs"}, {"measurement": "Glucose in the MTT compared to the vehicle controls", "setting": "[1]; [2]", "value": "significantly and dose dependently decreases glucose"}]}
